Source: article PMC6979384, “Characterization of the plant homeodomain (PHD) reader family for their histone tail interactions” (Epigenetics & Chromatin, 2020)
Where no end group is shown, it is not given here.

Tests used:
Experiment in all cases: Histone peptide microarray
Type in all cases: binding, human
[1] = test system: DPF2 (PPC2W2)
Method in brief: (§1)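 A peptide microarray holding 293 synthetic histone peptides with individual or combinatorial modifications was probed with each GST-PHD protein at 0.5 μM. Values represent mean intensity (±SD) from four replicates.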

[2] = test system: BPTF (PB)
Method in brief: as §1

[3] = test system: KDM5A (1)
Method in brief: as §1

[4] = test system: KDM5A (3)
Method in brief: as §1

[5] = test system: TAF3
Method in brief: as §1

[6] = test system: DIDO1
Method in brief: as §1

[7] = test system: ING4
Method in brief: as §1

[8] = test system: AIRE (PP)
Method in brief: as §1

[9] = test system: KDM5B (3)
Method in brief: as §1

[10] = test system: CHD5 (PCC)
Method in brief: as §1

[11] = test system: CHD4 (PPCC)
Method in brief: as §1

[12] = test system: KDM7A
Method in brief: as §1

[13] = test system: ING2
Method in brief: as §1

[14] = test system: MLL5
Method in brief: as §1

[15] = test system: ING3
Method in brief: as §1

[16] = test system: BAZ2B
Method in brief: as §1

[17] = test system: CHD5 (PPCC)
Method in brief: as §1

[18] = test system: ING1
Method in brief: as §1

[19] = test system: KDM5B (1)
Method in brief: as §1

[20] = test system: RAG2
Method in brief: as §1

[21] = test system: PHF2
Method in brief: as §1

[22] = test system: PHF21A
Method in brief: as §1

[23] = test system: SP140L
Method in brief: as §1

[24] = test system: PHF23
Method in brief: as §1

[25] = test system: PHF13
Method in brief: as §1

[26] = test system: TRIM66 (PB)
Method in brief: as §1

[27] = test system: KDM4C (TTP)
Method in brief: as §1

[28] = test system: PHRF1 (RP)
Method in brief: as §1

[29] = test system: ING5
Method in brief: as §1

[30] = test system: PHF8
Method in brief: as §1

[31] = test system: MORC3 (CW)
Method in brief: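 Each reader, produced as a GST fusion and purified, was tested at 0.5 μM on synthetic histone peptides (293 in total) carrying single or combinatorial marks. Intensities averaged over four replicates.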

Q: With “H3 (74-84) N-ac: H3 74-84 (Ac-IAQDFKTDLRF; UniProt P68431 75-85, looked up, fragment)” as the substance, how does the “Array Heatmap signal, DPF2 (PPC2W2)” value ([1]; GST-tagged DPF2 (PPC2W2 = Dual PHD + C2W2-type Zn-finger), histone peptide array, arrays performed twice, n of 4) read?
A: Its value is 0.6686.

Q: And the “Array Heatmap signal, BPTF (PB)” value ([2]; GST-tagged BPTF (PB = PHD + Bromodomain), histone peptide array, arrays performed twice, n of 4)?
A: The value was 0.3549.

Q: And the “Array Heatmap signal, KDM5A (1)” value ([3]; GST-tagged KDM5A (1), histone peptide array, arrays performed twice, n of 4)?
A: The value was 0.4913.

Q: And the “Array Heatmap signal, KDM5A (3)” value ([4]; GST-tagged KDM5A (3), histone peptide array, arrays performed twice, n of 4)?
A: Its value is 0.4833.

Q: And the “Array Heatmap signal, TAF3” value ([5]; GST-tagged TAF3, histone peptide array, arrays performed twice, n of 4)?
A: The value was 0.2845.

Q: And the “Array Heatmap signal, DIDO1” value ([6]; GST-tagged DIDO1, histone peptide array, arrays performed twice, n of 4)?
A: Its value is 0.7101.

Q: What about the “Array Heatmap signal, ING4” value ([7]; GST-tagged ING4, histone peptide array, arrays performed twice, n of 4) of the same substance?
A: The value was 0.4711.

Q: What about the “Array Heatmap signal, AIRE (PP)” value ([8]; GST-tagged AIRE (PP), histone peptide array, arrays performed twice, n of 4) of the same substance?
A: The value was 0.4661.

Q: What about the “Array Heatmap signal, KDM5B (3)” value ([9]; GST-tagged KDM5B (3), histone peptide array, arrays performed twice, n of 4) of the same substance?
A: Its value is 0.4839.

Q: What about the “Array Heatmap signal, CHD5 (PCC)” value ([10]; GST-tagged CHD5 (PCC = PHD + Dual Chromodomain), histone peptide array, arrays performed twice, n of 4) of the same substance?
A: The value was 0.8195.

Q: What about the “Array Heatmap signal, CHD4 (PPCC)” value ([11]; GST-tagged CHD4 (PPCC = Dual PHD + Dual Chromodomain), histone peptide array, arrays performed twice, n of 4) of the same substance?
A: The value was 0.602.

Q: And the “Array Heatmap signal, KDM7A” value ([12]; GST-tagged KDM7A, histone peptide array, arrays performed twice, n of 4)?
A: Its value is 0.3521.

Q: What about the “Array Heatmap signal, ING2” value ([13]; GST-tagged ING2, histone peptide array, arrays performed twice, n of 4) of the same substance?
A: The value was 0.6419.

Q: What about the “Array Heatmap signal, MLL5” value ([14]; GST-tagged MLL5, histone peptide array, arrays performed twice, n of 4) of the same substance?
A: The value was 0.5353.

Q: And the “Array Heatmap signal, ING3” value ([15]; GST-tagged ING3, histone peptide array, arrays performed twice, n of 4)?
A: The value was 0.5027.

Q: What about the “Array Heatmap signal, BAZ2B” value ([16]; GST-tagged BAZ2B, histone peptide array, arrays performed twice, n of 4) of the same substance?
A: The value was 0.4698.

Q: What about the “Array Heatmap signal, CHD5 (PPCC)” value ([17]; GST-tagged CHD5 (PPCC = Dual PHD + Dual Chromodomain), histone peptide array, arrays performed twice, n of 4) of the same substance?
A: The value was 0.5613.

Q: And the “Array Heatmap signal, ING1” value ([18]; GST-tagged ING1, histone peptide array, arrays performed twice, n of 4)?
A: The value was 0.5586.

Q: And the “Array Heatmap signal, KDM5B (1)” value ([19]; GST-tagged KDM5B (1), histone peptide array, arrays performed twice, n of 4)?
A: The value was 0.7009.

Q: And the “Array Heatmap signal, RAG2” value ([20]; GST-tagged RAG2, histone peptide array, arrays performed twice, n of 4)?
A: The value was 0.2671.

Q: And the “Array Heatmap signal, PHF2” value ([21]; GST-tagged PHF2, histone peptide array, arrays performed twice, n of 4)?
A: The value was 0.5329.

Q: And the “Array Heatmap signal, PHF21A” value ([22]; GST-tagged PHF21A, histone peptide array, arrays performed twice, n of 4)?
A: The value was 0.4735.

Q: And the “Array Heatmap signal, SP140L” value ([23]; GST-tagged SP140L, histone peptide array, arrays performed twice, n of 4)?
A: Its value is 0.3545.

Q: What about the “Array Heatmap signal, PHF23” value ([24]; GST-tagged PHF23, histone peptide array, arrays performed twice, n of 4) of the same substance?
A: Its value is 0.5407.

Q: What about the “Array Heatmap signal, PHF13” value ([25]; GST-tagged PHF13, histone peptide array, arrays performed twice, n of 4) of the same substance?
A: The value was 0.618.

Q: What about the “Array Heatmap signal, TRIM66 (PB)” value ([26]; GST-tagged TRIM66 (PB = PHD + Bromodomain), histone peptide array, arrays performed twice, n of 4) of the same substance?
A: Its value is 0.6043.

Q: What about the “Array Heatmap signal, KDM4C (TTP)” value ([27]; GST-tagged KDM4C (TTP = Tandem Tudor domain + PHD), histone peptide array, arrays performed twice, n of 4) of the same substance?
A: The value was 0.495.

Q: What about the “Array Heatmap signal, PHRF1 (RP)” value ([28]; GST-tagged PHRF1 (RP), histone peptide array, arrays performed twice, n of 4) of the same substance?
A: Its value is 0.4448.

Q: What about the “Array Heatmap signal, ING5” value ([29]; GST-tagged ING5, histone peptide array, arrays performed twice, n of 4) of the same substance?
A: Its value is 0.3669.

Q: And the “Array Heatmap signal, PHF8” value ([30]; GST-tagged PHF8, histone peptide array, arrays performed twice, n of 4)?
A: Its value is 0.3664.

Q: And the “Array Heatmap signal, MORC3 (CW)” value ([31]; GST-tagged MORC3 (CW = CW-type Zn-finger), histone peptide array, arrays performed twice, n of 4)?
A: The value was 0.4011.

Q: H2BK16ac: H2B 1-24 [Peptide H2BK16ac] was tested. Which “Array Heatmap value (peptide array signal)” value (“Array Heatmap value” below) ([1]; DPF2 (PPC2W2), sheet "Array Heatmap", each array performed twice, total n = 4) did it give?
A: Its value is 0.6685.

Q: And the “Array Heatmap value” value ([2]; BPTF (PB), sheet "Array Heatmap", each array performed twice, total n = 4)?
A: Its value is 0.3487.

Q: What about the “Array Heatmap value” value ([3]; KDM5A (1), sheet "Array Heatmap", each array performed twice, total n = 4) of the same substance?
A: Its value is 0.4583.

Q: And the “Array Heatmap value” value ([4]; KDM5A (3), sheet "Array Heatmap", each array performed twice, total n = 4)?
A: The value was 0.4534.

Q: What about the “Array Heatmap value” value ([5]; TAF3, sheet "Array Heatmap", each array performed twice, total n = 4) of the same substance?
A: Its value is 0.2759.

Q: And the “Array Heatmap value” value ([6]; DIDO1, sheet "Array Heatmap", each array performed twice, total n = 4)?
A: The value was 0.7223.

Q: What about the “Array Heatmap value” value ([7]; ING4, sheet "Array Heatmap", each array performed twice, total n = 4) of the same substance?
A: Its value is 0.4481.

Q: What about the “Array Heatmap value” value ([8]; AIRE (PP), sheet "Array Heatmap", each array performed twice, total n = 4) of the same substance?
A: The value was 0.4203.

Q: And the “Array Heatmap value” value ([9]; KDM5B (3), sheet "Array Heatmap", each array performed twice, total n = 4)?
A: Its value is 0.4678.

Q: And the “Array Heatmap value” value ([10]; CHD5 (PCC), sheet "Array Heatmap", each array performed twice, total n = 4)?
A: The value was 0.7842.

Q: What about the “Array Heatmap value” value ([11]; CHD4 (PPCC), sheet "Array Heatmap", each array performed twice, total n = 4) of the same substance?
A: The value was 0.5943.

Q: And the “Array Heatmap value” value ([12]; KDM7A, sheet "Array Heatmap", each array performed twice, total n = 4)?
A: The value was 0.3335.

Q: And the “Array Heatmap value” value ([13]; ING2, sheet "Array Heatmap", each array performed twice, total n = 4)?
A: The value was 0.6054.

Q: And the “Array Heatmap value” value ([14]; MLL5, sheet "Array Heatmap", each array performed twice, total n = 4)?
A: The value was 0.5839.

Q: What about the “Array Heatmap value” value ([15]; ING3, sheet "Array Heatmap", each array performed twice, total n = 4) of the same substance?
A: Its value is 0.4774.

Q: What about the “Array Heatmap value” value ([16]; BAZ2B, sheet "Array Heatmap", each array performed twice, total n = 4) of the same substance?
A: The value was 0.4705.

Q: And the “Array Heatmap value” value ([17]; CHD5 (PPCC), sheet "Array Heatmap", each array performed twice, total n = 4)?
A: Its value is 0.5498.

Q: And the “Array Heatmap value” value ([18]; ING1, sheet "Array Heatmap", each array performed twice, total n = 4)?
A: Its value is 0.5501.

Q: And the “Array Heatmap value” value ([19]; KDM5B (1), sheet "Array Heatmap", each array performed twice, total n = 4)?
A: The value was 0.6719.

Q: And the “Array Heatmap value” value ([20]; RAG2, sheet "Array Heatmap", each array performed twice, total n = 4)?
A: The value was 0.2422.

Q: And the “Array Heatmap value” value ([21]; PHF2, sheet "Array Heatmap", each array performed twice, total n = 4)?
A: Its value is 0.5633.

Q: And the “Array Heatmap value” value ([22]; PHF21A, sheet "Array Heatmap", each array performed twice, total n = 4)?
A: The value was 0.4621.

Q: What about the “Array Heatmap value” value ([23]; SP140L, sheet "Array Heatmap", each array performed twice, total n = 4) of the same substance?
A: The value was 0.3579.

Q: What about the “Array Heatmap value” value ([24]; PHF23, sheet "Array Heatmap", each array performed twice, total n = 4) of the same substance?
A: The value was 0.5681.

Q: What about the “Array Heatmap value” value ([25]; PHF13, sheet "Array Heatmap", each array performed twice, total n = 4) of the same substance?
A: Its value is 0.6297.

Q: And the “Array Heatmap value” value ([26]; TRIM66 (PB), sheet "Array Heatmap", each array performed twice, total n = 4)?
A: The value was 0.6089.

Q: What about the “Array Heatmap value” value ([27]; KDM4C (TTP), sheet "Array Heatmap", each array performed twice, total n = 4) of the same substance?
A: The value was 0.4673.

Q: And the “Array Heatmap value” value ([28]; PHRF1 (RP), sheet "Array Heatmap", each array performed twice, total n = 4)?
A: Its value is 0.501.

Q: And the “Array Heatmap value” value ([29]; ING5, sheet "Array Heatmap", each array performed twice, total n = 4)?
A: Its value is 0.3562.

Q: And the “Array Heatmap value” value ([30]; PHF8, sheet "Array Heatmap", each array performed twice, total n = 4)?
A: The value was 0.3517.

Q: And the “Array Heatmap value” value ([31]; MORC3 (CW), sheet "Array Heatmap", each array performed twice, total n = 4)?
A: Its value is 0.3691.
